Measured values reported in paper PMC4537157 (PLoS ONE, 2015).

What was measured:
Format in all cases: cell-based
human newborn cord blood = assay: Whole blood cytokine assay (TNF, IL-1β ELISA), newborn cord blood; conditions: 6 h
Method: (§1) Assessment of TLRA activity in whole blood was completed as previously described. […] Vehicle (DMSO) was added separately as a control. Suspensions containing 200 μl/well were gently mixed by pipetting and incubating for 6 h at 37°C in a humidified incubator at 5% CO2. After culture, plates were centrifuged at 500 x g and 100–150 μl of supernatant was carefully removed by pipetting without disturbing the cell pellet. Supernatants derived from human leukocyte stimulations were assayed by enzyme-linked immunoabsorbent assay (ELISA) for TNF (BD Biosciences, San Jose, CA, USA) and IL-1β (eBiosciences, San Diego, CA). Experiments were performed in triplicates.
(§2) Compound concentrations are shown in μM. Data are shown as mean ± SEM of n = 6–8.
(§3) Compound concentrations are shown in μM/ml. Cytokine production is shown as pg/ml. (PDF) Click here for additional data file.

[1] = tested on: human adult peripheral blood; assay: Whole blood cytokine assay (TNF, IL-1β ELISA), adult peripheral blood; conditions: 6 h
Method: as §1, §2, §3

human newborn MoDCs = assay: TNF production by newborn monocyte-derived dendritic cells; conditions: human neonatal MoDCs, tested 0.1–10 μM, 24 h
[2] = tested on: human newborn and adult leukocytes; assay: Whole blood and MoDC assays, overall potency as summarised in the discussion; conditions: Leukocyte, Tested in both whole blood and MoDC assays
Method: as §1

Row | Compound | IL-1β production (human newborn cord blood; 0.01 µM) [pg/mL] | TNF-α production (human newborn cord blood; 0.01 µM) [pg/mL] | IL-1β production (human newborn cord blood; 0.03 µM) [pg/mL] | TNF-α production (human newborn cord blood; 0.03 µM) [pg/mL] | IL-1β production (human newborn cord blood; 0.1 µM) [pg/mL] | TNF-α production (human newborn cord blood; 0.1 µM) [pg/mL] | IL-1β production (human newborn cord blood; 0.3 µM) [pg/mL] | TNF-α production (human newborn cord blood; 0.3 µM) [pg/mL] | IL-1β production (human newborn cord blood; 1 µM) [pg/mL] | TNF-α production (human newborn cord blood; 1 µM) [pg/mL] | IL-1β production (human newborn cord blood; 10 µM) [pg/mL] | TNF-α production (human newborn cord blood; 10 µM) [pg/mL] | IL-1β production ([1]; 0.01 µM) [pg/mL] | TNF-α production ([1]; 0.01 µM) [pg/mL] | IL-1β production ([1]; 0.03 µM) [pg/mL] | TNF-α production ([1]; 0.03 µM) [pg/mL] | IL-1β production ([1]; 0.1 µM) [pg/mL] | TNF-α production ([1]; 0.1 µM) [pg/mL] | IL-1β production ([1]; 0.3 µM) [pg/mL] | TNF-α production ([1]; 0.3 µM) [pg/mL] | also measured
1 | CCOCc1nc2c(N)nc3ccccc3c2n1CC(C)(C)O [R848, resiquimod, reference compound] | 15.63 | 95.80 | 15.63 | 84.29 | 46.36 | 68.30 | 15.63 | 210.98 | 415.65 | 654.85 | 322.08 | 1574.58 | 15.63 | 23.44 | 15.63 | 23.44 | 14.94 | 284.13 | 15.63 | 549.52 | IL-1β production ([1]; 1 µM): 191.49 pg/mL; TNF-α production ([1]; 1 µM): 3939.41 pg/mL; IL-1β production ([1]; 10 µM): 1922.12 pg/mL; TNF-α production ([1]; 10 µM): 19454.73 pg/mL; Concentration inducing TNF (human newborn MoDCs): 1 to 10 µM; EC50 [2]: 1 µM
2 | CCCCc1nc2c(N)nc3ccccc3c2n1Cc1ccc(CN)cc1 [Para-amine] | 15.63 | 64.05 | 15.63 | 120.31 | 15.63 | 70.49 | 15.63 | 381.52 | 387.41 | 1780.16 | 2820.52 | 16542.73 | 15.63 | 23.44 | 15.63 | 121.74 | 15.63 | 856.34 | 15.63 | 3653.12 | IL-1β production ([1]; 1 µM): 419.70 pg/mL; TNF-α production ([1]; 1 µM): 6740.50 pg/mL; IL-1β production ([1]; 10 µM): 2008.09 pg/mL; TNF-α production ([1]; 10 µM): 18165.00 pg/mL
3 | CCCCc1nc2c(N)nc3ccccc3c2n1Cc1cccc(CN)c1 [Meta-amine] | 15.63 | 79.15 | 15.63 | 78.72 | 15.63 | 94.65 | 15.63 | 93.72 | 271.87 | 1779.40 | 6199.29 | 32214.43 | 15.63 | 23.44 | 15.63 | 23.44 | 15.63 | 20.83 | 15.63 | 214.57 | IL-1β production ([1]; 1 µM): 232.86 pg/mL; TNF-α production ([1]; 1 µM): 3739.68 pg/mL; IL-1β production ([1]; 10 µM): 2699.66 pg/mL; TNF-α production ([1]; 10 µM): 19087.54 pg/mL
